The assay concerns the target Gonadotropin-releasing hormone receptor (Rattus norvegicus) (UniProt P30969). As to the kind of experiment: In vitro binding affinity was determined against rat Luteinizing hormone-releasing hormone (LHRH) receptor cloned in CHO cells.

Sequence of Gonadotropin-releasing hormone receptor (Rattus norvegicus) (P30969 whole entry, looked up): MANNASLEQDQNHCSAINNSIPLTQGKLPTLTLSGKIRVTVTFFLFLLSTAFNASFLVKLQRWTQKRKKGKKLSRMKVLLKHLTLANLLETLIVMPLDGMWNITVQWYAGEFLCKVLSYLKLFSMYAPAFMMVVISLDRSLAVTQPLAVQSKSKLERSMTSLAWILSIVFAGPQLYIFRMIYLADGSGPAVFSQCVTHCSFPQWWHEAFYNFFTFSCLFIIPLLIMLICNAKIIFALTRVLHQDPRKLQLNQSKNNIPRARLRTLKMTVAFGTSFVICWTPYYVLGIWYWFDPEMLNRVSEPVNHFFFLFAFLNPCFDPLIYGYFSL

For `CC[C@H]1OC(=O)[C@H](C)[C@@H](OC(=O)N2CCOC2)[C@H](C)[C@@H](OC2O[C@H](C)C[C@H](N(C)C(C)C)[C@H]2O)[C@@](C)(OC)C[C@@H](C)C(=O)[C@H](C)[C@H]2N(CCc3ccc(Cl)cc3)C(=O)O[C@]12C` (stereo partly specified), the affinity, expressed as Ki, was 51 nM.

Source of the values: BindingDB's records for doi:10.1021/jm030418i (Abbott Laboratories, 2004).
